The source of these data is patent US9533953B2, “Method of preparation of crystal forms of 4-(cyclopropylmethoxy)-n-(3,5-dichloro-1-oxidopyridyn-4-yl)-5-methoxypyridine-2-carboxamide and crystal forms thereof” (SANOFI, priority 2012, dated 2017).

Common to all, as to type: physicochemical
The nature of series [1]: Thermo-Gravimetric Analysis (TGA). Here is the method:
Analyses are carried out on a T.A. instruments TGAQ500 analyzer. Mass calibration is performed with 10 and 100 mg certified masses and the instrument is temperature-calibrated with alumel and nickel standards (Curie points of respectively 154° C. and 354° C.). Samples are exposed to a constant nitrogen stream of 60 mL/min and temperature ranges from 20° C. to 250° C. at a 5° C./min rate. The quantity of product lies between 2 and 5 mg. The powder is deposited in an open aluminum sample pan, which is itself placed in a platinum pan.

A short description of series [2]: Water-Activity Isotherm (DVS), water sorption/desorption at 25° C. Here is the method:
All experiments are performed on a DVS-1 automated gravimetric vapor sorption analyser (Surface Measurement Systems Ltd., London, UK). The DVS-1 measures the uptake and loss of vapor gravimetrically using a Cahn D200 recording ultra-microbalance with a mass resolution of ±0.1 μg. A controlled relative humidity is generated by mixing different proportions of dry and water saturated carrier gas streams (monitored by mass flow controllers). The temperature is maintained constant, ±0.1° C., by enclosing the entire system in a temperature-controlled incubator. A sample size between 4 and 10 mg is used. Prior to being exposed to any water vapor the samples are dried at 0% RH to remove any surface water present and establish a dry, baseline mass. Next, the samples are exposed to an increasing relative humidity raised by a step of 5% RH from 0% to 90% RH.

A short description of series [3]: Physical stability of the crystal form on heating, humidity and storage (XRPD). The settings on record: for temperature of transformation into another crystal form: A into B, D into E, E into B, G desolvates into D; for desolvation behaviour: slight heating / upon heating. As for the experimental part: High-resolution diagrams are recorded at ambient conditions on a PANalytical X'Pert Pro MPD powder diffractometer using the Bragg-Brentano (vertical 0-20 configuration) parafocusing geometry coupled with a X'Celerator detector. A sealed copper anode X-ray tube is used, running at 45 kV and 40 mA levels. An incident beam monochromator (Johansson type: a symmetrically cut curved germanium (111) crystal) produces pure Cu Kα1 radiation (λ[…]=1.54060 Å). A thin layer of the product is deposited on a single-crystal silicon wafer, cut out according to Si (510) crystallographic orientation that, by systematic extinction, impedes any Bragg reflection. In order to bring more crystallites into the diffraction position and thus reduce the influence of particle statistics on the measurements, a sample spinner is used. The spinner rotation speed is set at 1 revolution per second. The angular range extends from 2 to 50° in 2θ, with a 0.02° step size in 2θ. A variable counting time from 100 to 2500 seconds per step was used.
XRPD analyses are carried out on a Siemens-Bruker D5000 Matic powder diffractometer using the Bragg-Brentano (vertical θ-2θ configuration) parafocusing geometry. A thin layer of the product is deposited on a single-crystalline silicon wafer, cut out according to Si(510) crystallographic orientation that, by systematic extinction, impedes any Bragg reflection. A sealed cobalt anode X-ray tube running at 40 kV and 30 mA levels is used. Two lines are typically emitted: CoKα1 (λ=1.7890 Å) and CoKα2 (λ=1.7929 Å). […] The primary beam passes through a parallel plate collimator (0.2 mm Soller slits), then through a divergence slit (0.2 mm). A Braun 50 M multicanal linear detector completes the setup. It has a 10°-wide detection window in angle 2θ.

Series [4] can be described thus: Behaviour under mechanical strain (mortar grinding, jet-milling). Conditions: for effect of jet-milling on the crystalline form: DSC / XRPD. As for the experimental part: Crystal Form A is of particular interest because of its behaviour under mechanical strain. The effect of 30 seconds of mortar grinding was evaluated. […] The behaviour of amorphous phase present in ground form A was also studied. No recrystallization of the amorphous phase was detected through sorption/desorption of water at 25° C. Nevertheless, maturation of ground samples in pure water for 6 days at room temperature led to partial recrystallization of the amorphous phase into form A.
A particle size close to 5 μm could be reached. The DSC analyses indicate that there is no modification of the crystalline structure before and after jet-milling of Form A.
A particle size close to 5 μm could be reached.

Structures are written as SMILES. A value given as a limit tells only on which side of the number the result lay.

As for `COc1cnc(C(=O)Nc2c(Cl)c[n+]([O-])cc2Cl)cc1OCC1CC1` [Crystal Form A, 4-(cyclopropylmethoxy)-N-(3,5-dichloro-1-oxidopyridin-4-yl)-5-methoxypyridine-2-carboxamide], the “temperature beyond which thermal decomposition is observed” value in series [1] is greater than 190 °C. The TGA weight loss entry in series [1] (from room temperature up to 190° C.) is listed as “no weight loss”. The hygroscopicity entry in series [2] (25° C. isotherm) is “not hygroscopic”. For the same molecule, the water uptake entry in series [2] (25° C., up to 90% of relative humidity (RH)) was “no significant water uptake”. Also, the “temperature of transformation into another crystal form” value in series [3] (upon heating) is “above 100 °C”. In series [4] (30 seconds of mortar grinding), the “amorphous phase after grinding (XRPD)” value was “appearance of amorphous phase was detected” and the “polymorphic transition after grinding (XRPD)” value is on record as “no observed polymorphic transition”. Also, in series [4], the “particle size reached by jet-milling” value is roughly 5 μm and the “effect of jet-milling on the crystalline form” value is “without any impact on the crystalline form”.
Consider `COc1cnc(C(=O)Nc2c(Cl)c[n+]([O-])cc2Cl)cc1OCC1CC1` [Crystal Form B, 4-(cyclopropylmethoxy)-N-(3,5-dichloro-1-oxidopyridin-4-yl)-5-methoxypyridine-2-carboxamide], for which the “temperature beyond which thermal decomposition is observed” value in series [1] is greater than 190 °C.
Regarding `COc1cnc(C(=O)Nc2c(Cl)c[n+]([O-])cc2Cl)cc1OCC1CC1` [Crystal Form C, 4-(cyclopropylmethoxy)-N-(3,5-dichloro-1-oxidopyridin-4-yl)-5-methoxypyridine-2-carboxamide], the behaviour on storage result in series [3] (15 months of storage in ambient conditions) was “transformed into Crystal Form D and amorphous phase”.
`COc1cnc(C(=O)Nc2c(Cl)c[n+]([O-])cc2Cl)cc1OCC1CC1` [Crystal Form D, 4-(cyclopropylmethoxy)-N-(3,5-dichloro-1-oxidopyridin-4-yl)-5-methoxypyridine-2-carboxamide]: the “temperature beyond which thermal decomposition is observed” value in series [1] is greater than 205 °C. In series [1] (between 20 and 100° C.), this molecule came in with a TGA weight loss of 0.2%. In addition, the TGA weight loss result in series [1] (between 100 and 205° C.) is reported as “no weight loss”. Also, in series [2] (25° C., at 90% RH), the total water gain was 8.7% and the “total water gain expressed as moles of water” value is listed as 2 moles of water. Also, the “loss of water, last desorption step” value in series [2] (25° C., between 70% and 0% RH, without hysteresis) is listed as 1.3%. The “water desorption, second desorption step” value in series [2] (25° C., between 75% and 70% RH) is listed as 6.4%. In addition, the “water uptake, second sorption step” value in series [2] (25° C., between 85% and 90% RH) was found to be 6.9%. Besides, in series [3] (upon heating), the “temperature range in which the form is stable / physically unaltered” value is “up to 110 °C” and the “temperature of transformation into another crystal form” value worked out at 110 °C. For the same molecule, in series [4], the “particle size reached by jet-milling” value is given as roughly 5 μm and the “effect of jet-milling on the crystalline form” value is “without any impact on the crystalline form”.
As for `COc1cnc(C(=O)Nc2c(Cl)c[n+]([O-])cc2Cl)cc1OCC1CC1` [Crystal Form E, 4-(cyclopropylmethoxy)-N-(3,5-dichloro-1-oxidopyridin-4-yl)-5-methoxypyridine-2-carboxamide], the TGA weight loss is listed as 0.8% in series [1] (between 100 and 170° C.); “no weight loss” in series [1] (from room temperature to 100° C.). Besides, in series [3] (room conditions), the “stability under room conditions” value is on record as “stable under room conditions”. Further, the “temperature of transformation into another crystal form” value in series [3] (upon heating) was found to be 140 °C.
`COc1cnc(C(=O)Nc2c(Cl)c[n+]([O-])cc2Cl)cc1OCC1CC1` [Crystal Form G, 4-(cyclopropylmethoxy)-N-(3,5-dichloro-1-oxidopyridin-4-yl)-5-methoxypyridine-2-carboxamide]: the “temperature of transformation into another crystal form” value in series [3] (upon heating) amounted to 70 °C.
On to `COc1cnc(C(=O)Nc2c(Cl)c[n+]([O-])cc2Cl)cc1OCC1CC1` [Crystal Form H, 4-(cyclopropylmethoxy)-N-(3,5-dichloro-1-oxidopyridin-4-yl)-5-methoxypyridine-2-carboxamide], for which the desolvation behaviour result in series [3] is “desolvates easily into Crystal Form D”.
For `COc1cnc(C(=O)Nc2c(Cl)c[n+]([O-])cc2Cl)cc1OCC1CC1` [Crystal Form I, 4-(cyclopropylmethoxy)-N-(3,5-dichloro-1-oxidopyridin-4-yl)-5-methoxypyridine-2-carboxamide], the desolvation behaviour result in series [3] is on record as “desolvates easily into form D”.
